Laboratory results: ChEMBL document CHEMBL5113375, “Development of Mcl-1 inhibitors for cancer therapy” (Eur J Med Chem, 2021)

What was measured:
[1] = biological target: T1, BCL2L2/BID (Homo sapiens, UniProt P55957+Q92843); assay: Binding affinity to Bcl-W/Bid (unknown origin) by fluorescence polarization assay; assay type: protein assay
T1 sequence (Q92843 whole entry): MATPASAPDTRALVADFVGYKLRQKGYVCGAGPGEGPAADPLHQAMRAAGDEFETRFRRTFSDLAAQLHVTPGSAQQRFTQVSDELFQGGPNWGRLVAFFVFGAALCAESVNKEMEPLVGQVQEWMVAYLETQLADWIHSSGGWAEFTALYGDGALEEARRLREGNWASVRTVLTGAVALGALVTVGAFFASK
T1 sequence (P55957 whole entry): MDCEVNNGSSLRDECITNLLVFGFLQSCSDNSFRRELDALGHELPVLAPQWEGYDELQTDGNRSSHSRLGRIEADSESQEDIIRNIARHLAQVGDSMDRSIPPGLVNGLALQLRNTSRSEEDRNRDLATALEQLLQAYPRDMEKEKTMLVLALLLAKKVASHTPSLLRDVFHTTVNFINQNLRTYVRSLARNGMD

[2] = biological target: T2, Induced myeloid leukemia cell differentiation protein Mcl-1/BH3-interacting domain death agonist (Homo sapiens, UniProt Q07820); assay: Binding affinity to Mcl-1/Bid (unknown origin) assessed as inhibition constant by fluorescence polarization assay; assay type: protein assay
T2 sequence (Q07820 whole entry, one chain of several, the tested form may be a part): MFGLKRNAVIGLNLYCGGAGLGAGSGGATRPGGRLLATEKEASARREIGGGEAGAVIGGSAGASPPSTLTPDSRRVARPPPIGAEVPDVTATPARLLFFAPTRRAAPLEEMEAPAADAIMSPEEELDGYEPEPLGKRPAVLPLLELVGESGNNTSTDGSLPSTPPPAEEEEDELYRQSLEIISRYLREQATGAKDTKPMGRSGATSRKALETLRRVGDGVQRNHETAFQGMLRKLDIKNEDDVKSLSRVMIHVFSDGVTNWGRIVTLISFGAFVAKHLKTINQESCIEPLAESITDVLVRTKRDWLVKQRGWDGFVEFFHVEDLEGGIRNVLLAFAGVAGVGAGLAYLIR

[3] = biological target: T3, BCL2/BID (Homo sapiens, UniProt P10415); assay: Binding affinity to Bcl-2/Bid (unknown origin) by fluorescence polarization assay; assay type: protein assay
T3 sequence (P10415 whole entry, one chain of several): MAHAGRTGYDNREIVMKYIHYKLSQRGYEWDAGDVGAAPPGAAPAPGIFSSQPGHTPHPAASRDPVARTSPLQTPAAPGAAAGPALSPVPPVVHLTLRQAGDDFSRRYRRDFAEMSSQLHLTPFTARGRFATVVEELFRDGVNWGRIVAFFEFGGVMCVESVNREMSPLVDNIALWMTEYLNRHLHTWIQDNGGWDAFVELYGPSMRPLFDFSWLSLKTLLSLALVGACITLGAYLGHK

[4] = biological target: T4, BCL2A1/BID (Homo sapiens, UniProt Q16548); assay: Binding affinity to Bfl-1/Bid (unknown origin) by fluorescence polarization assay; assay type: protein assay
T4 sequence (Q16548 whole entry): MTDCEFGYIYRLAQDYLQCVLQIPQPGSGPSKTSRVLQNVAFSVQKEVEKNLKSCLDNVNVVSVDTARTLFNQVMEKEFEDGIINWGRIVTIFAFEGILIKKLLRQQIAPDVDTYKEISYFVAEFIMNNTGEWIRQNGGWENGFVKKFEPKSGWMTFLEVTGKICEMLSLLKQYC
T4 sequence (P55957 whole entry): T1 sequence (P55957 whole entry)

[5] = biological target: T5, Bcl-xL/BH3-interacting domain death agonist (Homo sapiens, UniProt Q07817); assay: Binding affinity to Bcl-xL/Bid (unknown origin) by fluorescence polarization assay; assay type: protein assay
T5 sequence (Q07817 whole entry, one chain of several, the tested form may be a part): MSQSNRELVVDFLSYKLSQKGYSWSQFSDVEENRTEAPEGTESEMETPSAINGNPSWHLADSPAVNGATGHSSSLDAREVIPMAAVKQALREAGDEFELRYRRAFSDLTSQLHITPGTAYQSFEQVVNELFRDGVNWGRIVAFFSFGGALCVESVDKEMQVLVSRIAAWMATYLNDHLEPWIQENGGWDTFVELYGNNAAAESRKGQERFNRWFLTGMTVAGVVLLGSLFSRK

[6] = biological target: T6, Induced myeloid leukemia cell differentiation protein Mcl-1 (Homo sapiens, UniProt Q07820); assay: Binding affinity to Mcl-1 (unknown origin) assessed as inhibition constant by fluorescence polarization assay
T6 sequence (Q07820 whole entry, the tested form may be a part): as the sequence (Q07820 whole entry, one chain of several, the tested form may be a part) above

[7] = biological target: T2, Induced myeloid leukemia cell differentiation protein Mcl-1/BH3-interacting domain death agonist; assay: Binding affinity to Mcl-1/Bid (unknown origin) incubated for 3 hrs by fluorescence polarization-based binding assay; assay type: protein assay
[8] = biological target: T4, BCL2A1/BID; assay: Binding affinity to Bfl-1/Bid (unknown origin) incubated for 3 hrs by fluorescence polarization-based binding assay; assay type: protein assay
[9] = biological target: T7, Bcl-xL/BAK (Homo sapiens, UniProt Q07817); assay: Binding affinity to human Bcl-xL/Bak (unkown origin) incubated for 1 hr by fluorescence polarization assay; assay type: protein assay
T7 sequence (Q07817 whole entry, one chain of several): as the sequence (Q07817 whole entry, one chain of several, the tested form may be a part) above

[10] = Binding affinity to mouse Mcl-1/Bak (unkown origin) incubated for 1 hr by fluorescence polarization assay
[11] = biological target: T7, Bcl-xL/BAK; assay: Binding affinity to Bcl-xL/Bak (unknown origin) assessed as dissociation constant by ITC method; assay type: protein assay
[12] = biological target: T8, MCL1-BAK1 complex (Homo sapiens, UniProt Q07820); assay: Binding affinity to Mcl-1/Bak (unknown origin) assessed as inhibition constant by fluorescence polarization assay; assay type: protein-complex assay
T8 sequence (Q07820 whole entry, one chain of several): as the sequence (Q07820 whole entry, one chain of several, the tested form may be a part) above

[13] = biological target: T7, Bcl-xL/BAK; assay: Binding affinity to Bcl-xL/Bak (unknown origin) assessed as inhibition constant by fluorescence polarization assay; assay type: protein assay
[14] = biological target: T2, Induced myeloid leukemia cell differentiation protein Mcl-1/BH3-interacting domain death agonist; assay: Inhibition of Mcl-1/FITC-labelled Bid (unknown origin) protein protein interaction incubated for 20 to 60 mins by fluorescence polarisation binding assay
[15] = biological target: T6, Induced myeloid leukemia cell differentiation protein Mcl-1; assay: Binding affinity to Mcl-1 (unknown origin)
[16] = biological target: T5, Bcl-xL/BH3-interacting domain death agonist; assay: Inhibition of Bcl-xL/Bid (unknown origin) by fluorescence polarization assay; assay type: protein assay
[17] = biological target: T2, Induced myeloid leukemia cell differentiation protein Mcl-1/BH3-interacting domain death agonist; assay: Inhibition of Mcl-1/Bid (unknown origin) by fluorescence polarization assay; assay type: protein assay
[18] = tested on: OPM-2; assay: Cytotoxicity against human OPM-2 cells assessed as cell viability; assay type: functional, cell-based
[19] = biological target: T6, Induced myeloid leukemia cell differentiation protein Mcl-1; assay: Binding affinity to Mcl-1 (unknown origin) assessed as inhibition constant
[20] = biological target: Apoptosis regulator Bcl-2 (Homo sapiens, UniProt P10415); assay: Binding affinity to Bcl-2 (unknown origin) assessed as inhibition constant
Sequence of Apoptosis regulator Bcl-2 (P10415 whole entry): as the sequence (P10415 whole entry, one chain of several) above

[21] = biological target: Bcl-2-like protein 1 (Homo sapiens, UniProt Q07817); assay: Binding affinity to Bcl-xL (unknown origin) assessed as inhibition constant
Sequence of Bcl-2-like protein 1 (Q07817 whole entry): as the sequence (Q07817 whole entry, one chain of several, the tested form may be a part) above

[22] = Inhibition of Bak/Bcl-xL (unknown origin) protein protein interaction by fluorescence polarization assay; design: species or system Homo sapiens
[23] = Binding affinity to Bak/Bcl-xL (unknown origin) protein protein interaction by fluorescence polarization assay; design: species or system Homo sapiens
[24] = biological target: T8, MCL1-BAK1 complex; assay: Inhibition of Bak/Mcl-1 (unknown origin) protein protein interaction by fluorescence polarization assay; assay type: protein-complex assay
[25] = biological target: T2, Induced myeloid leukemia cell differentiation protein Mcl-1/BH3-interacting domain death agonist; assay: Inhibition of Mcl-1/Bid (unknown origin); assay type: protein assay
[26] = biological target: BCL2/BAD (Homo sapiens, UniProt P10415); assay: Binding affinity to Bcl-2/Bad (unknown origin) assessed as inhibition constant by fluorescence polarisation assay; assay type: protein assay
Sequence of BCL2/BAD (Q92934 whole entry): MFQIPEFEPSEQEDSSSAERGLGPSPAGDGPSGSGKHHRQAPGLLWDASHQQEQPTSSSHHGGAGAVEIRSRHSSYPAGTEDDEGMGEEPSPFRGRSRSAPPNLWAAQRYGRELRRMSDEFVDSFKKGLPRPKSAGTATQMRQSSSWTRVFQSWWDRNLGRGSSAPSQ
Sequence of BCL2/BAD (P10415 whole entry): as the sequence (P10415 whole entry, one chain of several) above

[27] = biological target: BCL2L10/BID (Homo sapiens, UniProt P55957+Q9HD36); assay: Inhibition of Bcl-B/Bid (unknown origin); assay type: protein assay
Sequence of BCL2L10/BID (Q9HD36 whole entry, one chain of several): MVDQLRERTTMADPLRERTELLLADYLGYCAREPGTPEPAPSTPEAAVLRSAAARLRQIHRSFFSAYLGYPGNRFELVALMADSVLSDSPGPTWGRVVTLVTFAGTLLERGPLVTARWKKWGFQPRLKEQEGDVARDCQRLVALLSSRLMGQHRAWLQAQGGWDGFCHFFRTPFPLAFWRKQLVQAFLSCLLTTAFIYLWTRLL

[28] = Binding affinity to Bcl-xL/Bad (unknown origin) assessed as inhibition constant by fluorescence polarisation assay; design: species or system Homo sapiens
[29] = biological target: T1, BCL2L2/BID; assay: Inhibition of Bcl-W/Bid (unknown origin); assay type: protein assay
[30] = biological target: T4, BCL2A1/BID; assay: Inhibition of Bfl-1/Bid (unknown origin); assay type: protein assay
[31] = biological target: T3, BCL2/BID; assay: Inhibition of Bcl-2/Bid (unknown origin); assay type: protein assay
[32] = biological target: T5, Bcl-xL/BH3-interacting domain death agonist; assay: Inhibition of Bcl-xL/Bid complex (unknown origin); assay type: protein assay
[33] = Induction of apoptosis in Mcl-1 dependent […] cells treated for 48 hrs by Annexin V-FITC staining based flow cytometric analysis; assay type: functional, cell-based; details: Mus musculus, H22, 48 h
[34] = tested on: MCF7; assay: Induction of apoptosis in Bcl-2 dependent human MCF7 cells treated for 48 hrs by Annexin V-FITC staining based flow cytometric analysis; assay type: functional, cell-based; details: MCF7, 48 h
[35] = biological target: T8, MCL1-BAK1 complex; assay: Inhibition of Mcl-1/Bak (unknown origin); assay type: protein-complex assay
[36] = biological target: T9, BCL2A1/BAK1 (Homo sapiens, UniProt Q16548+Q16611); assay: Inhibition of Bfl-1/Bak (unknown origin); assay type: protein assay
T9 sequence (Q16611 whole entry): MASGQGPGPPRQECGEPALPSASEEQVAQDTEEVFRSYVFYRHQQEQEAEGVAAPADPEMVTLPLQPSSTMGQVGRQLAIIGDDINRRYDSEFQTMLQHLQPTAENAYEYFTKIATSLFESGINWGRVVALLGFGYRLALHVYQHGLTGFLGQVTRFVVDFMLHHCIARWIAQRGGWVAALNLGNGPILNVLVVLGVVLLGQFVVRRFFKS
T9 sequence (Q16548 whole entry): T4 sequence (Q16548 whole entry)

[37] = biological target: Apoptosis regulator Bcl-2/Bcl-2 homologous antagonist/killer (Homo sapiens, UniProt P10415+Q16611); assay: Inhibition of Bcl-2/Bak (unknown origin); assay type: protein assay
Sequence of Apoptosis regulator Bcl-2/Bcl-2 homologous antagonist/killer (P10415 whole entry, one chain of several): as the sequence (P10415 whole entry, one chain of several) above

[38] = biological target: T7, Bcl-xL/BAK; assay: Inhibition of Bcl-xL/Bak (unknown origin); assay type: protein assay
[39] = biological target: Induced myeloid leukemia cell differentiation protein Mcl-1/Bcl-2-like protein 11 (Homo sapiens, UniProt Q07820); assay: Inhibition of Mcl-1/Bim (unknown origin) by fluorescence polarisation assay; assay type: protein assay
Sequence of Induced myeloid leukemia cell differentiation protein Mcl-1/Bcl-2-like protein 11 (Q07820 whole entry): as the sequence (Q07820 whole entry, one chain of several, the tested form may be a part) above
Sequence of Induced myeloid leukemia cell differentiation protein Mcl-1/Bcl-2-like protein 11 (O43521 whole entry, further chain): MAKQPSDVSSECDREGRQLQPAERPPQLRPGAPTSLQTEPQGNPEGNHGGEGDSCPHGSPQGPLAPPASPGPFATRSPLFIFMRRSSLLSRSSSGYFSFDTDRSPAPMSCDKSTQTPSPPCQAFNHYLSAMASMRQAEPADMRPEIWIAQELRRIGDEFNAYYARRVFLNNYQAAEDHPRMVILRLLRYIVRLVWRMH

[40] = biological target: T7, Bcl-xL/BAK; assay: Inhibition of Bcl-xL/Bak (unknown origin) by fluorescence polarization assay; assay type: protein assay
[41] = biological target: T3, BCL2/BID; assay: Binding affinity to human Bcl-2 (29 to 44 residues)/5-FAM-tagged Bid (unknown origin) assessed as inhibition constant by fluorescence polarization assay; assay type: protein assay
[42] = biological target: Bcl-xL/Bcl-2-like protein 11 (Homo sapiens, UniProt Q07817); assay: Binding affinity to GST-tagged Bcl-xL/5-FAM-tagged Bim (unknown origin) assessed as inhibition constant by fluorescence polarization assay; assay type: protein assay
Sequence of Bcl-xL/Bcl-2-like protein 11 (Q07817 whole entry, the tested form may be a part): as the sequence (Q07817 whole entry, one chain of several, the tested form may be a part) above
Sequence of Bcl-xL/Bcl-2-like protein 11 (O43521 whole entry, further chain, the tested form may be a part): as the sequence (O43521 whole entry, further chain) above

[43] = biological target: T2, Induced myeloid leukemia cell differentiation protein Mcl-1/BH3-interacting domain death agonist; assay: Binding affinity to human N-terminal 8xHis tagged Mcl-1/5-FAM-tagged Bid (unknown origin) assessed as inhibition constant by fluorescence polarization assay; assay type: protein assay

SMILES: O=C(O)CSc1cc(NS(=O)(=O)c2cccc(Br)c2)c2ccccc2c1O
- Ki [1]: 8190 nM
- Ki [2]: 490 nM
- Ki [3]: 23800 nM
- Ki [4]: 5330 nM
- Ki [5]: 33000 nM
- Ki [6]: 180 nM

SMILES: O=C(CSc1nnc(-c2ccco2)c(-c2ccco2)n1)Nc1ccccc1
- Ki [7]: 3200 nM
- Ki [8]: 4900 nM

SMILES: CC1=C[C@@H](/C=C(\C)c2ccc(C(=O)O)cc2)[C@]2(C(=O)O)C=C[C@@H](CCOC(=O)c3ccc(Oc4ccccc4)cc3)C[C@@H]2C1
- Ki [9]: 700 nM
- Ki [10]: 500 nM

SMILES: COc1ccc(-c2ccc(/C=C3\SC(=S)N([C@@H](Cc4ccccc4)C(=O)O)C3=O)cn2)cc1OC
- Kd [11]: > 750000 nM
- Ki [12]: 8000 nM
- Ki [13]: > 100000 nM

SMILES: Cc1ccc(S(=O)(=O)/N=C2\C=C(Sc3nc[nH]n3)C(=O)c3ccccc32)cc1
- IC50 [14]: 450 nM

SMILES: CC1=C(C2=C(C)C(=O)c3c(cc(O)c(O)c3C(C)C)C2=O)C(=O)c2cc(O)c(O)c(C(C)C)c2C1=O
- Ki [15]: 25000 nM
- IC50 [16]: 660 nM
- IC50 [17]: 25 nM

SMILES: O=C(O)C(O)c1ccccc1 (stereo not drawn) [MANDELIC ACID]
- IC50 [18]: 19 nM

SMILES: O=C(O)C1C2CC(Sc3ccccc3[N+](=O)[O-])C(Cl)C2c2cc(Cl)cc3c2N1CC1CC=CC31 (stereo not drawn)
- Ki [19]: 530 nM
- Ki [20]: 15000 nM
- Ki [21]: ≥ 50000 nM

SMILES: CC(C)Oc1cc(C(=O)Nc2ccc(C(=O)Nc3ccc(C(=O)O)cc3OC(C)C)nc2OC(C)C)ccc1N
- IC50 [22]: 394 nM
- Ki [23]: 179 nM
- IC50 [24]: 10200 nM

SMILES: O=C(O[C@@H]1Cc2c(O)cc(O)cc2O[C@@H]1c1cc(O)c(O)c(O)c1)c1cc(O)c(O)c(O)c1 [EPIGALOCATECHIN GALLATE]
- IC50 [25]: 920 nM
- Ki [26]: 490 nM
- IC50 [27]: 360 nM
- Ki [28]: 335 nM
- IC50 [29]: 2330 nM
- IC50 [30]: 1790 nM
- IC50 [31]: 450 nM
- IC50 [32]: 590 nM

SMILES: O=C(O)c1cc2ccccc2n1S(=O)(=O)c1ccc(OCc2cccc(Cl)c2)cc1
- IC50 [33]: 9200 nM
- IC50 [34]: 19200 nM

SMILES: Cc1cc2c(O)c(-c3ccc4c(C(=O)NCC(C)c5ccccc5)c(O)c(O)cc4c3O)c(C)cc2c(C(=O)NCC(C)c2ccccc2)c1C (stereo not drawn)
- IC50 [35]: 620 nM
- IC50 [36]: 200 nM
- IC50 [37]: 320 nM
- IC50 [38]: 310 nM

SMILES: CC(C)Cc1cc(-c2ccc(-c3ccc(OCC(=O)O)cc3CC(C)C)cc2Cc2ccccc2)ccc1OCCC(=O)O
- IC50 [39]: 4900 nM
- IC50 [40]: 1500 nM

SMILES: O=C(Nc1ccccc1)C1=CN=c2s/c(=C\c3cn(Cc4ccccc4F)c4ccccc34)c(=O)n2C1c1ccc(F)cc1 (stereo not drawn)
- Ki [41]: 2670 nM
- Ki [42]: 1640 nM
- Ki [43]: 1050 nM
